Test system: 633275-114-R-J1-PDC complex spheroids, viability
Test: Anticancer human tumor 633275-114-R-J1-PDC patient-derived endometrial adenocarcinoma cell line growth inhibition [GQUAD]
Settings: for IC50: curve of first compound; for viability, T/C: stronger effect = lower value
Procedure, shortened: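 Multi-cell-type spheroids of tumor cells with HUVEC and mesenchymal stem cells, treated with drug combinations. Concentrations descend in half-log steps from near clinical Cmax, or from 10 microM where Cmax is unknown; viability read-out.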

[1] = second compound 0.0316 µM, first compound 0.0316 µM
[2] = second compound 0.0316 µM, first compound 0.1 µM
[3] = second compound 0.0316 µM, first compound 0.316 µM
[4] = second compound 0.0316 µM, first compound 1 µM
[5] = second compound 0.0316 µM, first compound 3.16 µM
[6] = second compound 0.0316 µM, first compound 10 µM
[7] = second compound 0.1 µM, first compound 0.0316 µM
[8] = second compound 0.1 µM, first compound 0.1 µM
[9] = second compound 0.1 µM, first compound 0.316 µM
[10] = second compound 0.1 µM, first compound 1 µM
[11] = second compound 0.1 µM, first compound 3.16 µM
[12] = second compound 0.1 µM, first compound 10 µM
[13] = second compound 0.316 µM, first compound 0.0316 µM
[14] = second compound 0.316 µM, first compound 0.1 µM
[15] = second compound 0.316 µM, first compound 0.316 µM
[16] = second compound 0.316 µM, first compound 1 µM
[17] = second compound 0.316 µM, first compound 3.16 µM
[18] = second compound 0.316 µM, first compound 10 µM
[19] = second compound 1 µM, first compound 0.0316 µM
[20] = second compound 1 µM, first compound 0.1 µM
[21] = second compound 1 µM, first compound 0.316 µM
[22] = second compound 1 µM, first compound 1 µM
[23] = second compound 1 µM, first compound 3.16 µM
[24] = second compound 1 µM, first compound 10 µM
[25] = second compound 3.16 µM, first compound 0.0316 µM
[26] = second compound 3.16 µM, first compound 0.1 µM
[27] = second compound 3.16 µM, first compound 0.316 µM
[28] = second compound 3.16 µM, first compound 1 µM
[29] = second compound 3.16 µM, first compound 3.16 µM
[30] = second compound 3.16 µM, first compound 10 µM
[31] = second compound 10 µM, first compound 0.0316 µM
[32] = second compound 10 µM, first compound 0.1 µM
[33] = second compound 10 µM, first compound 0.316 µM
[34] = second compound 10 µM, first compound 1 µM
[35] = second compound 10 µM, first compound 3.16 µM
[36] = second compound 10 µM, first compound 10 µM
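Note: spheroids exposed to the agents for seven days.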
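Throughout, for viability, T/C: percent of DMSO vehicle control viability which is 100%.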

COc1ncnc(C2CC2)c1-c1ncc2cnn(Cc3ccc(-c4nc(C(F)(F)F)cn4C(C)C)cc3)c2n1 + Cc1[nH]c2ccc(F)cc2c1-c1nc2c3cccnc3c3ncccc3c2[nH]1
IC50 (second compound 0.0316 µM): > 10000 nM | IC50 (second compound 0.1 µM): > 10000 nM | IC50 (second compound 0.316 µM): > 10000 nM | IC50 (second compound 1 µM): > 10000 nM | IC50 (second compound 3.16 µM): > 10000 nM | IC50 (second compound 10 µM): > 10000 nM | viability, T/C [1]: 95.6% | viability, T/C [2]: 91.5% | viability, T/C [3]: 100% | viability, T/C [4]: 93.2% | viability, T/C [5]: 91.4% | viability, T/C [6]: 89.8% | viability, T/C [7]: 98.2% | viability, T/C [8]: 102% | viability, T/C [9]: 89.5% | viability, T/C [10]: 96.7% | viability, T/C [11]: 92.1% | viability, T/C [12]: 87.7% | viability, T/C [13]: 93.4% | viability, T/C [14]: 87.9% | viability, T/C [15]: 87.3% | viability, T/C [16]: 82.3% | viability, T/C [17]: 99.7% | viability, T/C [18]: 91.8% | viability, T/C [19]: 86.7% | viability, T/C [20]: 90% | viability, T/C [21]: 93.2% | viability, T/C [22]: 81.3% | viability, T/C [23]: 93.5% | viability, T/C [24]: 87.1% | viability, T/C [25]: 70% | viability, T/C [26]: 78.4% | viability, T/C [27]: 64.1% | viability, T/C [28]: 62.7% | viability, T/C [29]: 73.2% | viability, T/C [30]: 67% | viability, T/C [31]: 59.8% | viability, T/C [32]: 63.1% | viability, T/C [33]: 56% | viability, T/C [34]: 60.5% | viability, T/C [35]: 62.3% | viability, T/C [36]: 60.3%

Cc1[nH]c2ccccc2c1CCNCc1ccc(/C=C/C(=O)NO)cc1 + Cc1[nH]c2ccc(F)cc2c1-c1nc2c3cccnc3c3ncccc3c2[nH]1
IC50 (second compound 0.0316 µM): 63 nM | IC50 (second compound 0.1 µM): 83.5 nM | IC50 (second compound 0.316 µM): 65.7 nM | IC50 (second compound 1 µM): 54.6 nM | IC50 (second compound 3.16 µM): 21 nM | IC50 (second compound 10 µM): 16.2 nM | viability, T/C (second compound 0.0316 µM, first compound 0.000999 µM): 103% | viability, T/C (second compound 0.0316 µM, first compound 0.00316 µM): 85.6% | viability, T/C (second compound 0.0316 µM, first compound 0.00999 µM): 79.1% | viability, T/C [1]: 64.2% | viability, T/C (second compound 0.0316 µM, first compound 0.0999 µM): 41.4% | viability, T/C [3]: 19.3% | viability, T/C (second compound 0.1 µM, first compound 0.000999 µM): 90.6% | viability, T/C (second compound 0.1 µM, first compound 0.00316 µM): 90.4% | viability, T/C (second compound 0.1 µM, first compound 0.00999 µM): 81.6% | viability, T/C [7]: 70.5% | viability, T/C (second compound 0.1 µM, first compound 0.0999 µM): 46.1% | viability, T/C [9]: 17.3% | viability, T/C (second compound 0.316 µM, first compound 0.000999 µM): 94% | viability, T/C (second compound 0.316 µM, first compound 0.00316 µM): 94% | viability, T/C (second compound 0.316 µM, first compound 0.00999 µM): 71.2% | viability, T/C [13]: 62.3% | viability, T/C (second compound 0.316 µM, first compound 0.0999 µM): 44.8% | viability, T/C [15]: 19.7% | viability, T/C (second compound 1 µM, first compound 0.000999 µM): 87.6% | viability, T/C (second compound 1 µM, first compound 0.00316 µM): 78.7% | viability, T/C (second compound 1 µM, first compound 0.00999 µM): 71.7% | viability, T/C [19]: 57.2% | viability, T/C (second compound 1 µM, first compound 0.0999 µM): 41.9% | viability, T/C [21]: 21.2% | viability, T/C (second compound 3.16 µM, first compound 0.000999 µM): 69.8% | viability, T/C (second compound 3.16 µM, first compound 0.00316 µM): 64.9% | viability, T/C (second compound 3.16 µM, first compound 0.00999 µM): 53.6% | viability, T/C [25]: 45.1% | viability, T/C (second compound 3.16 µM, first compound 0.0999 µM): 41.3% | viability, T/C [27]: 21.7% | viability, T/C (second compound 10 µM, first compound 0.000999 µM): 62% | viability, T/C (second compound 10 µM, first compound 0.00316 µM): 65.4% | viability, T/C (second compound 10 µM, first compound 0.00999 µM): 48.7% | viability, T/C [31]: 45.5% | viability, T/C (second compound 10 µM, first compound 0.0999 µM): 36.4% | viability, T/C [33]: 20.8%

O=C(NO)c1cnc(N2CCN(S(=O)(=O)c3ccc4ccccc4c3)CC2)nc1 + Cc1[nH]c2ccc(F)cc2c1-c1nc2c3cccnc3c3ncccc3c2[nH]1
IC50 (second compound 0.0316 µM): 371 nM | IC50 (second compound 0.1 µM): 527 nM | IC50 (second compound 0.316 µM): 574 nM | IC50 (second compound 1 µM): 492 nM | IC50 (second compound 3.16 µM): 336 nM | IC50 (second compound 10 µM): 362 nM | viability, T/C [1]: 88.1% | viability, T/C [2]: 77.9% | viability, T/C [3]: 51.7% | viability, T/C [4]: 29% | viability, T/C [5]: 16.9% | viability, T/C [6]: 5.26% | viability, T/C [7]: 91.7% | viability, T/C [8]: 83.9% | viability, T/C [9]: 63.5% | viability, T/C [10]: 32.1% | viability, T/C [11]: 16% | viability, T/C [12]: 3.49% | viability, T/C [13]: 82.3% | viability, T/C [14]: 86.2% | viability, T/C [15]: 62.4% | viability, T/C [16]: 34.7% | viability, T/C [17]: 18.5% | viability, T/C [18]: 1.56% | viability, T/C [19]: 91.3% | viability, T/C [20]: 77.2% | viability, T/C [21]: 57.9% | viability, T/C [22]: 37% | viability, T/C [23]: 17.2% | viability, T/C [24]: 1.48% | viability, T/C [25]: 72.3% | viability, T/C [26]: 60.2% | viability, T/C [27]: 52.6% | viability, T/C [28]: 35.2% | viability, T/C [29]: 15.8% | viability, T/C [30]: 2.67% | viability, T/C [31]: 62.1% | viability, T/C [32]: 58.3% | viability, T/C [33]: 54.8% | viability, T/C [34]: 32.5% | viability, T/C [35]: 17.8% | viability, T/C [36]: 3.92%

COc1ccc([C@@H](O)c2cc(-c3ncnc4cc(N5CCOCC5)ccc34)c(F)cc2Cl)nn1 + Cc1cnc(CNC(=O)c2c(=O)c3ccc(N4CCCN(C)CC4)nc3n3c2sc2ccccc23)cn1
IC50 (second compound 0.0316 µM): 179 nM | IC50 (second compound 0.1 µM): 60.3 nM | IC50 (second compound 0.316 µM): < 31.6 nM | IC50 (second compound 1 µM): < 31.6 nM | IC50 (second compound 3.16 µM): < 31.6 nM | IC50 (second compound 10 µM): < 31.6 nM | viability, T/C [1]: 59.8% | viability, T/C [2]: 60.3% | viability, T/C [3]: 40.9% | viability, T/C [4]: 29.2% | viability, T/C [5]: 19.2% | viability, T/C [6]: 12.2% | viability, T/C [7]: 51.5% | viability, T/C [8]: 50.5% | viability, T/C [9]: 36.1% | viability, T/C [10]: 25% | viability, T/C [11]: 18.8% | viability, T/C [12]: 11.2% | viability, T/C [13]: 48.6% | viability, T/C [14]: 45.7% | viability, T/C [15]: 30.1% | viability, T/C [16]: 24.9% | viability, T/C [17]: 20.6% | viability, T/C [18]: 11.9% | viability, T/C [19]: 40.2% | viability, T/C [20]: 37.9% | viability, T/C [21]: 28.4% | viability, T/C [22]: 24.6% | viability, T/C [23]: 18.1% | viability, T/C [24]: 11.1% | viability, T/C [25]: 34% | viability, T/C [26]: 29.4% | viability, T/C [27]: 27.6% | viability, T/C [28]: 21.8% | viability, T/C [29]: 18.7% | viability, T/C [30]: 11.5% | viability, T/C [31]: 30.8% | viability, T/C [32]: 27.5% | viability, T/C [33]: 28.6% | viability, T/C [34]: 19.9% | viability, T/C [35]: 16% | viability, T/C [36]: 3.93%

Source: PubChem BioAssay AID2060505 (Molecular Pharmacology Branch, DTP, NCI, 2025)
